The results in this text go back to patent US20250074876A1, “DIPHENOLIC COMPOUNDS AND PREPARATION METHODS THEREOF” (PURPANA (BEIJING) TECHNOLOGIES CO., LTD., priority 2022, published 2025).

The test system of data set [1] is human melanoma cells (G361). Description: B-1 Cytotoxicity test (MTT, relative cell viability). Format: cell-based. As to conditions: 24 h. How it is done:
• a) Cell inoculation: human melanoma cells (G361) were inoculated into 96-well plates at a density of 1×10^4 cells/well, and the 96-well plates were placed in an incubator (37° C., 5% CO2) overnight for incubation. • b) Experimental grouping: the experiments were set up with a zeroing group, a control group, a positive control group, and a sample group. In the sample group, each sample was set up with different concentration gradients, and 3 replicate wells were set up under each concentration gradient. • c) Solution preparation: different concentrations of sample working solution were prepared according to the concentrations in Table 4. • d) Drug administration: a drug administration was performed until the cell plating rate in the 96-well plate reaches 40%-60%. In the control group, 200 μL of culture medium containing 10% PBS (Gibco) […] was added to each well; in the positive control group, 200 μL of culture medium containing 10% DMSO was added to each well; in the sample group, 200 μL of culture medium containing the corresponding concentration of sample was added to each well; in the zeroing group, no cell was inoculated and only 200 μL of cell culture medium was added. After the drug administration completed, the 96-well plates were placed in an incubator (37° C., 5% CO2) for incubation. • e) Detection: after incubation for 24 h, the supernatant was discarded, and MTT working solution (0.5 mg/mL) was added and incubated at 37° C. in the dark for 4 h. After incubation, the supernatant was discarded, and 100 μL DMSO was added into each well and the OD value was obtained at 490 nm. • f) Relative cell viability was calculated by the following equation (4): […]

The test system of a further data set is melanin cell. The data set can be described thus: B-2 Inhibition test of cell melanin synthesis (chromogenic method). Format: cell-based. As to conditions: for inhibitory effect on cellular melanin synthesis (in words): at a lower concentration (no more than 0.10% g/m L); for inhibitory effect on cellular melanin synthesis compared with kojic acid: comparison with kojic acid. The protocol:
According to cytotoxicity test data, an inhibition test of cell melanin synthesis was performed within the range allowed by cytotoxicity. The range allowed by cytotoxicity is a range of sample concentration corresponding to a relative cell viability more than 60% in the cytotoxicity test. The samples were grouped according to different concentrations, and a test index was melanin content, a test model was melanin cell, and a detection method is a chromogenic method. Cells at logarithmic growth phase were collected, and the cells were inoculated into 24-well plates at a cell density of 2×10^5 cells/well. After 24 h of incubation in the incubator (37° C., 5% CO2), according to the results of cytotoxicity, the drug was added according to the concentration requirements. The untreated cells were used as a blank control, and three parallel controls were set up in each group. After the drug added, the incubation was continued in the incubator (37° C., 5% CO2) for 48 h. The supernatant was discarded, 1 mL of 1 M NaOH containing 10% DMSO was added, and the plate was placed in a thermostatic oven for incubation at 60° C. for 1 h. After restoring to a room temperature, 200 μL mixed solution of each well was transferred to a 96-well plate, and 1 M NaOH containing 10% DMSO was used as a blank control. The absorbance value was read at 405 nm, and the inhibition rate of cellular melanin synthesis was calculated according to the following equation (5): […]

The structures appear in SMILES notation.

As to `CC(c1ccccc1)c1ccc(O)cc1O` (centres unmarked) [control group, phenylethyl resorcinol, reference compound], the Relative cell viability is given as 106.32% in data set [1] (G361 cells, MTT, sample concentration 0.007813 % (g/mL)); 114.68% in data set [1] (G361 cells, MTT, sample concentration 0.015625 % (g/mL)); 101.15% in data set [1] (G361 cells, MTT, sample concentration 0.03125 % (g/mL)); 100.10% in data set [1] (G361 cells, MTT, sample concentration 0.125 % (g/mL)); 106.07% in data set [1] (G361 cells, MTT, sample concentration 0.25 % (g/mL)); 96.77% in data set [1] (G361 cells, MTT, sample concentration 0.5 % (g/mL)).

`CC(c1cc(C(C)N2CCCC2=O)c(O)cc1O)N1CCCC1=O` (centres unmarked) [V-c]: in the data set with melanin cell, the “inhibitory effect on cellular melanin synthesis (in words)” value (“inhibitory effect … (in words)” below) is “have an inhibitory effect on cellular melanin synthesis”.

For the molecule `CCCC(c1ccc(O)cc1O)N1CCCCC1=O` (centres unmarked) [I-e], the “inhibitory effect … (in words)” value in the data set on melanin cell is “have an inhibitory effect on cellular melanin synthesis”.

As for `CCC(c1ccc(O)cc1O)N1CCCC1=O` (centres unmarked) [I-d], in the data set with melanin cell, the “inhibitory effect … (in words)” value is recorded as “have an inhibitory effect on cellular melanin synthesis” and the “inhibitory effect on cellular melanin synthesis compared with kojic acid” value (“inhibitory effect … compared with kojic acid” for short) is on record as “superior to that of kojic acid”.

As to `CC(c1ccccc1)c1cc(C(C)c2ccccc2)c(O)cc1O` (centres unmarked) [V-a], in the data set on melanin cell, the “inhibitory effect … (in words)” value is “have an inhibitory effect on cellular melanin synthesis” and the “inhibitory effect … compared with kojic acid” value is on record as “superior to that of kojic acid”.

`CC(c1ccc(O)cc1O)N1CCCC1=O` (centres unmarked) [I-h]: in the data set with melanin cell, the “inhibitory effect … (in words)” value is given as “have an inhibitory effect on cellular melanin synthesis”.

Take `CCCC(c1ccc(O)cc1O)N1CCCC1=O` (centres unmarked) [I-f]: in the data set with melanin cell, the “inhibitory effect … (in words)” value is “have an inhibitory effect on cellular melanin synthesis”.

Consider `CC(c1ccc(O)cc1O)N1CCCCCC1=O` (centres unmarked) [I-g], for which the Relative cell viability in data set [1] (human, 0.007813 % (g/mL)) is listed as 117.8165%; in data set [1] (human, 0.015625 % (g/mL)), 120.6987%; in data set [1] (human, 0.03125 % (g/mL)), 107.8966%; in data set [1] (human, 0.125 % (g/mL)) it was 113.8122%; in data set [1] (human, 0.25 % (g/mL)) it was 120.9409%; in data set [1] (human, 0.5 % (g/mL)) it was 107.9874%. The “inhibitory effect … (in words)” value in the data set on melanin cell was “have an inhibitory effect on cellular melanin synthesis”.

With `CC(c1ccc(O)cc1O)N1CCCCC1=O` (centres unmarked) [I-a], in the data set with melanin cell, the “inhibitory effect … (in words)” value is given as “have an inhibitory effect on cellular melanin synthesis” and the “inhibitory effect … compared with kojic acid” value is “superior to that of kojic acid”.
